Experimental data from ChEMBL document CHEMBL1201862, “PubChem BioAssay data set” (2004).
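These data come from cells grown in 96-well plates and exposed to compound for 48 hours at five concentrations. Abbreviation: GI50, concentration required for 50% inhibition of growth.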 Active and inactive are the calls of the source. Cut-off read from the data, not from the text of the source: active = GI50 up to about 1.1 µM and inactive = higher.

How the values were obtained:
Test in all cases: NCI tumour cell line growth inhibition, 48 h
CCRF-CEM = tested on: CCRF-CEM
SR = tested on: SR
RXF 393 = tested on: RXF 393
K562 = tested on: K562
HOP-92 = tested on: HOP-92
KM12 = tested on: KM12
SF-268 = tested on: SF-268
HL-60 = tested on: HL-60
OVCAR-4 = tested on: OVCAR-4
NCI-H226 = tested on: NCI-H226
LXFL 529 = tested on: LXFL 529
OVCAR-8 = tested on: OVCAR-8
SN12C = tested on: SN12C
HOP-18 = tested on: HOP-18
NCI-H522 = tested on: NCI-H522
DMS-273 = tested on: DMS-273
IGROV-1 = tested on: IGROV-1
RPMI-8226 = tested on: RPMI-8226
U-251 = tested on: U-251
ACHN = tested on: ACHN
DLD-1 = tested on: DLD-1
SF-295 = tested on: SF-295
HCT-116 = tested on: HCT-116
TK-10 = tested on: TK-10
Malme-3M = tested on: Malme-3M
786-0 = tested on: 786-0
HOP-62 = tested on: HOP-62
SNB-75 = tested on: SNB-75
SK-MEL-28 = tested on: SK-MEL-28
SK-MEL-2 = tested on: SK-MEL-2
NCI-H460 = tested on: NCI-H460
SW-620 = tested on: SW-620
SF-539 = tested on: SF-539
HCT-15 = tested on: HCT-15
NCI-H23 = tested on: NCI-H23
M19-MEL = tested on: M19-MEL
KM-20L2 = tested on: KM-20L2
A498 = tested on: A498
OVCAR-3 = tested on: OVCAR-3
SK-OV-3 = tested on: SK-OV-3
UACC-62 = tested on: UACC-62
UO-31 = tested on: UO-31
UACC-257 = tested on: UACC-257
LOX IMVI = tested on: LOX IMVI
SNB-78 = tested on: SNB-78
M14 = tested on: M14
HT-29 = tested on: HT-29
DMS-114 = tested on: DMS-114
OVCAR-5 = tested on: OVCAR-5
CAKI-1 = tested on: CAKI-1
A549 = tested on: A549
SK-MEL-5 = tested on: SK-MEL-5
COLO 205 = tested on: COLO 205
MOLT-4 = tested on: MOLT-4
Hs-578T = tested on: Hs-578T
MDA-MB-231 = tested on: MDA-MB-231
PC-3 = tested on: PC-3
SNB-19 = tested on: SNB-19
DU-145 = tested on: DU-145
HCC 2998 = tested on: HCC 2998
MDA-MB-435 = tested on: MDA-MB-435
MDA-N = tested on: MDA-N
EKVX = tested on: EKVX
BT-549 = tested on: BT-549
T47D = tested on: T47D
NCI/ADR-RES = tested on: NCI/ADR-RES
MCF7 = tested on: MCF7

For `O=S(=O)(c1ccccc1)n1cnc(CCc2ccccc2)n1`, the GI50 (CCRF-CEM) was > 100000 nM (inactive), the GI50 (SR) was > 100000 nM (inactive) and the GI50 (RXF 393) was > 100000 nM (inactive). The GI50 (K562) was > 100000 nM (inactive), the GI50 (HOP-92) was > 100000 nM (inactive) and the GI50 (KM12) was > 100000 nM (inactive). For the same molecule, the GI50 (SF-268) was > 100000 nM (inactive), the GI50 (HL-60) was > 100000 nM (inactive) and the GI50 (OVCAR-4) was > 100000 nM (inactive). For the same molecule, the GI50 (NCI-H226) was > 100000 nM (inactive), the GI50 (LXFL 529) was > 100000 nM (inactive) and the GI50 (OVCAR-8) was > 100000 nM (inactive). The GI50 (SN12C) was > 100000 nM (inactive), the GI50 (HOP-18) was > 100000 nM (inactive) and the GI50 (NCI-H522) was > 100000 nM (inactive). For the same molecule, the GI50 (DMS-273) was > 100000 nM (inactive), the GI50 (IGROV-1) was > 100000 nM (inactive) and the GI50 (RPMI-8226) was > 100000 nM (inactive). For the same molecule, the GI50 (U-251) was > 100000 nM (inactive), the GI50 (ACHN) was > 100000 nM (inactive) and the GI50 (DLD-1) was > 100000 nM (inactive). The GI50 (SF-295) was > 100000 nM (inactive), the GI50 (HCT-116) was > 100000 nM (inactive) and the GI50 (TK-10) was > 100000 nM (inactive). For the same molecule, the GI50 (Malme-3M) was > 100000 nM (inactive), the GI50 (786-0) was > 100000 nM (inactive) and the GI50 (HOP-62) was > 100000 nM (inactive). For the same molecule, the GI50 (SNB-75) was 45100 nM (inactive), the GI50 (SK-MEL-28) was > 100000 nM (inactive) and the GI50 (SK-MEL-2) was > 100000 nM (inactive). For the same molecule, the GI50 (NCI-H460) was > 100000 nM (inactive), the GI50 (SW-620) was > 100000 nM (inactive) and the GI50 (SF-539) was > 100000 nM (inactive). For the same molecule, the GI50 (HCT-15) was greater than 100000 nM, the GI50 (NCI-H23) was > 100000 nM (inactive) and the GI50 (M19-MEL) was > 100000 nM (inactive). For the same molecule, the GI50 (KM-20L2) was > 100000 nM (inactive), the GI50 (A498) was > 100000 nM (inactive) and the GI50 (OVCAR-3) was > 100000 nM (inactive). The GI50 (SK-OV-3) was > 100000 nM (inactive), the GI50 (UACC-62) was > 100000 nM (inactive) and the GI50 (UO-31) was > 100000 nM (inactive). For the same molecule, the GI50 (UACC-257) was > 100000 nM (inactive), the GI50 (LOX IMVI) was > 100000 nM (inactive) and the GI50 (SNB-78) was > 100000 nM (inactive). The GI50 (M14) was > 100000 nM (inactive), the GI50 (HT-29) was > 100000 nM (inactive) and the GI50 (DMS-114) was > 100000 nM (inactive). The GI50 (OVCAR-5) was > 100000 nM (inactive), the GI50 (CAKI-1) was > 100000 nM (inactive) and the GI50 (A549) was > 100000 nM (inactive). For the same molecule, the GI50 (SK-MEL-5) was > 100000 nM (inactive), the GI50 (COLO 205) was > 100000 nM (inactive) and the GI50 (MOLT-4) was > 100000 nM (inactive).

`CC(C)n1c2c([n+](C)c1/C=C/c1ccccc1)C(=O)c1ccccc1C2=O` was tested, and the GI50 (Hs-578T) was 1910 nM (inactive), the GI50 (MDA-MB-231) was 166 nM (active) and the GI50 (CCRF-CEM) was 74.3 nM (active). The GI50 (SR) was 257 nM (active), the GI50 (PC-3) was 149 nM (active) and the GI50 (RXF 393) was 322 nM (active). For the same molecule, the GI50 (K562) was 59.2 nM (active), the GI50 (HOP-92) was 309 nM (active) and the GI50 (KM12) was 132 nM (active). The GI50 (SF-268) was 70.3 nM (active), the GI50 (HL-60) was 20 nM (active) and the GI50 (SNB-19) was 223 nM (active). The GI50 (OVCAR-4) was 27.8 nM (active), the GI50 (NCI-H226) was 791 nM (active) and the GI50 (LXFL 529) was 86.1 nM (active). For the same molecule, the GI50 (OVCAR-8) was 70 nM (active), the GI50 (SN12C) was 49.5 nM (active) and the GI50 (DU-145) was 340 nM (active). For the same molecule, the GI50 (NCI-H522) was 20.1 nM (active), the GI50 (DMS-273) was 34.8 nM (active) and the GI50 (IGROV-1) was 15.7 nM (active). For the same molecule, the GI50 (HCC 2998) was 272 nM (active), the GI50 (RPMI-8226) was 57.5 nM (active) and the GI50 (MDA-MB-435) was 237 nM (active). For the same molecule, the GI50 (U-251) was 147 nM (active), the GI50 (ACHN) was 2000 nM (inactive) and the GI50 (DLD-1) was 426 nM (active). For the same molecule, the GI50 (SF-295) was 916 nM (active), the GI50 (HCT-116) was 74.8 nM (active) and the GI50 (MDA-N) was 299 nM (active). For the same molecule, the GI50 (TK-10) was 538 nM (active), the GI50 (Malme-3M) was 107 nM (active) and the GI50 (EKVX) was 206 nM (active). The GI50 (786-0) was 259 nM (active), the GI50 (HOP-62) was 398 nM (active) and the GI50 (SNB-75) was 419 nM (active). For the same molecule, the GI50 (SK-MEL-28) was 312 nM (active), the GI50 (SK-MEL-2) was 116 nM (active) and the GI50 (NCI-H460) was 360 nM (active). For the same molecule, the GI50 (SW-620) was 50.1 nM (active), the GI50 (SF-539) was 33.4 nM (active) and the GI50 (HCT-15) was 3670 nM. The GI50 (NCI-H23) was 90.8 nM (active), the GI50 (M19-MEL) was 125 nM (active) and the GI50 (KM-20L2) was 95.5 nM (active). For the same molecule, the GI50 (BT-549) was 241 nM (active), the GI50 (A498) was 611 nM (active) and the GI50 (OVCAR-3) was < 10 nM (active). For the same molecule, the GI50 (SK-OV-3) was 299 nM (active), the GI50 (T47D) was 39.7 nM (active) and the GI50 (UACC-62) was 198 nM (active). For the same molecule, the GI50 (UO-31) was 3550 nM (inactive), the GI50 (UACC-257) was 39.8 nM (active) and the GI50 (LOX IMVI) was 72.1 nM (active). The GI50 (SNB-78) was 38.9 nM (active), the GI50 (M14) was 318 nM (active) and the GI50 (HT-29) was 87.5 nM (active). The GI50 (DMS-114) was < 14.8 nM (active), the GI50 (OVCAR-5) was 501 nM (active) and the GI50 (NCI/ADR-RES) was 48600 nM (inactive). For the same molecule, the GI50 (CAKI-1) was 2790 nM (inactive), the GI50 (A549) was 587 nM (active) and the GI50 (MCF7) was 51.6 nM (active). The GI50 (SK-MEL-5) was 70 nM (active), the GI50 (COLO 205) was < 10 nM (active) and the GI50 (MOLT-4) was 50.4 nM (active).
